Experimental data published in patent publication US20060153933A1 (priority 2002, published 2006).
Like-named read-outs stand apart in the source and are kept apart here.

Legend:
Type in all cases: in vivo
[1] = system: Plasmopara viticola (PLASVI); assay: whole plant or invertebrate
[2] = system: Phytophthora infestans (PHYTIN); assay: whole plant or invertebrate; details: for pest or weed control at 1.85 ppm: read-out: % Disease Control (observed)
[3] = system: Plasmopara viticola (PLASVI); details: 1DC
[4] = system: Phytophthora infestans (PHYTIN); details: 1DC
[5] = Phytophthora infestans, 24 h, read-out: % Disease Control (observed), 1DP, 0.62 ppm alone
[6] = Plasmopara viticola, 48 h, read-out: % Disease Control (observed), 2DP, 0.62 ppm alone
[7] = Phytophthora infestans, 24 h, read-out: % Disease Control (observed), 1DP, 5.56 ppm alone
[8] = Plasmopara viticola, 48 h, read-out: % Disease Control (observed), 2DP, 1.85 ppm alone
[9] = PLASVI 2DP, applied alone at 5.56 ppm
[10] = PHYTIN 2DP, applied alone at 5.56 ppm

O=C1c2ccccc2C(=O)N1SC(Cl)(Cl)Cl [Folpet, folpet]
% Disease Control (Observed) ([1]; PLASVI 2DP, applied alone at 4.3 ppm): 1.8%
% Disease Control (Observed) ([1]; PLASVI 2DP, applied alone at 12.8 ppm): 22.8%
pest or weed control at 5.56 ppm ([1]; Plasmopara viticola, 24 h, read-out: % Disease Control (observed), 1DP, 5.56 ppm alone): 0%
% Disease Control (Observed) ([2]; PHYTIN 2DP, applied alone at 4.3 ppm): 1.8%
% Disease Control (Observed) ([2]; PHYTIN 2DP, applied alone at 12.8 ppm): 5.3%
pest or weed control at 0.62 ppm [2, 5]: 0%

CO/C=C(/C(=O)OC)c1ccccc1COc1cccc(C(F)(F)F)n1 [Picoxystrobin, picoxystrobin]
% Disease Control (Observed) ([1]; 3DP, 5.56 ppm alone): 61.4%
% Disease Control (Observed) ([2]; 3DP, 5.56 ppm alone): 59.6%

Cc1ccc(-c2c(Cl)nc(C#N)n2S(=O)(=O)N(C)C)cc1 [Cyazofamid, cyazofamid]
pest or weed control at 0.62 ppm ([1]; Plasmopara viticola, 72 h, read-out: % Disease Control (observed), 3DP, 0.62 ppm alone): 7%
pest or weed control at 0.62 ppm ([2]; Phytophthora infestans, 72 h, read-out: % Disease Control (observed), 3DP, 0.62 ppm alone): 82.5%

COC(=O)N(OC)c1ccccc1COc1ccn(-c2ccc(Cl)cc2)n1 [Pyraclostrobin, pyraclostrobin]
pest or weed control at 1.85 ppm ([1]; Plasmopara viticola, 24 h, read-out: % Disease Control (observed), 1DP, Table 14, 1.85 ppm alone): 0%
pest or weed control at 5.56 ppm ([1]; Plasmopara viticola, 24 h, read-out: % Disease Control (observed), 1DP, Table 14, 5.56 ppm alone): 0%
pest or weed control at 0.62 ppm [1, 6]: 61.4%
pest or weed control at 1.85 ppm ([2]; Phytophthora infestans, 48 h): 78.9%
pest or weed control at 5.56 ppm ([2]; Phytophthora infestans, 48 h, read-out: % Disease Control (observed), 2DP, 5.56 ppm alone): 89.5%

COCC(=O)N(c1c(C)cccc1C)C(C)C(=O)OC (centres unmarked) [Metalaxyl, metalaxyl]
pest or weed control at 1.9 ppm ([1]; Plasmopara viticola, 72 h, read-out: % Disease Control (observed), 3DP, 1.90 ppm alone): 15.8%
pest or weed control at 5.6 ppm ([1]; Plasmopara viticola, 72 h, read-out: % Disease Control (observed), 3DP, 5.60 ppm alone): 21.1%
pest or weed control at 5.56 ppm [2, 7]: 0%

Cc1ccc(C(C)NC(=O)[C@@H](NC(=O)OC(C)C)C(C)C)cc1 (some centres unmarked) [Iprovalicarb, iprovalicarb]
% Disease Control (Observed) ([1]; 3DP, 1.85 ppm alone): 8.8%
% Disease Control (Observed) ([1]; 3DP, 5.56 ppm alone): 26.3%
% Disease Control (Observed) ([3]; 5.56 ppm alone): 40.0%
% Disease Control (Observed) ([3]; 16.70 ppm alone): 50.0%
% Disease Control (Observed) ([2]; 3DP, 5.56 ppm alone): 1.8%
% Disease Control (Observed) ([2]; 3DP, 16.70 ppm alone): 33.3%

CCNc1nc(CC)c(C(=O)NC(C#N)c2cccs2)s1 (centres unmarked) [Ethaboxam, ethaboxam]
% Disease Control (Observed) ([1]; 2DP, 1.85 ppm alone): 50.9%
% Disease Control (Observed) ([1]; 2DP, 5.56 ppm alone): 78.9%
% Disease Control (Observed) ([2]; 2DP, 0.62 ppm alone): 10.5%

O=[N+]([O-])c1cc(C(F)(F)F)c(Cl)c([N+](=O)[O-])c1Nc1ncc(C(F)(F)F)cc1Cl [Fluazinam, fluazinam]
pest or weed control at 1.85 ppm [1, 8]: 14%
pest or weed control at 1.85 ppm ([2]; Phytophthora infestans, 72 h): 12.3%
pest or weed control at 5.56 ppm ([2]; Phytophthora infestans, 72 h, read-out: % Disease Control (observed), 3DP, 5.56 ppm alone): 50.9%

Maneb
% Disease Control (Observed) ([1]; PLASVI 3DP, applied alone at 16.70 ppm): 24.6%
% Disease Control (Observed) ([2]; PHYTIN 3DP, applied alone at 5.56 ppm): 14.0%
% Disease Control (Observed) ([2]; in vivo): 3.5%

COCC(=O)N(c1c(C)cccc1C)N1CCOC1=O [Oxadixyl, oxadixyl]
pest or weed control at 0.2 ppm ([1]; Plasmopara viticola, 24 h, read-out: % Disease Control (observed), 1DP, 0.20 ppm alone (Formula III 0.00 ppm)): 19.3%
pest or weed control at 0.62 ppm [2, 5]: 0%
pest or weed control at 1.9 ppm ([2]; Phytophthora infestans, 24 h, read-out: % Disease Control (observed), 1DP, 1.90 ppm alone): 24.6%

COC(=O)CC(NC(=O)[C@@H](NC(=O)OC(C)C)C(C)C)c1ccc(Cl)cc1 (mixture of isomers) [Compound 1, methyl (±)RS-[3-(N-isopropoxycarbonyl-S-valinyl)amino]-3-(4-chlorophenyl)propanoate]
% Disease Control (Observed) ([1]; 2DP, 1.85 ppm alone): 5.3%
% Disease Control (Observed) ([2]; 2DP, 0.62 ppm alone): 7.0%
% Disease Control (Observed) ([2]; in vivo): 40.4%

CCO[PH](=O)O [Fosetyl-Al, fosetyl-Al]
% Disease Control (Observed) ([1]; 7DP, 1.85 ppm alone): 8.8%
% Disease Control (Observed) ([1]; 7DP, 5.56 ppm alone): 10.5%
% Disease Control (Observed) ([1]; 7DP, 16.70 ppm alone): 12.3%
% Disease Control (Observed) ([1]; PLASVI 6DP, applied alone at 33.3 ppm): 0%
% Disease Control (Observed) ([2]; PHYTIN 6DP, applied alone at 11.1 ppm): 0%
% Disease Control (Observed) ([2]; PHYTIN 6DP, applied alone at 33.3 ppm): 0%
% Disease Control (Observed) ([2]; in vivo): 0.0%

Metiram
% Disease Control (Observed) ([1]; PLASVI 2DP, applied alone at 1.85 ppm): 5.3%
% Disease Control (Observed) [1, 9]: 8.8%
% Disease Control (Observed) [2, 10]: 0.0%

mancozeb
% Disease Control (Observed) ([1]; 1DP, 2.7 ppm alone): 14%
% Disease Control (Observed) ([1]; 1DP, 8.0 ppm alone): 33.3%
% Disease Control (Observed) ([1]; 4DP, 1.9 ppm alone): 0%
% Disease Control (Observed) ([1]; 4DP, 16.7 ppm alone): 12.3%
% Disease Control (Observed) ([1]; PLASVI 3DP, applied alone at 8.9 ppm): 17.5%
% Disease Control (Observed) ([2]; 4DP, 0.60 ppm alone): 5.3%
% Disease Control (Observed) ([2]; 4DP, 1.9 ppm alone): 8.8%
% Disease Control (Observed) ([2]; 4DP, 5.6 ppm alone): 26.3%
% Disease Control (Observed) ([2]; 4DP, 16.70 ppm alone): 40.4%
% Disease Control (Observed) ([2]; PHYTIN 3DP, applied alone at 8.9 ppm): 5.3%

CC(C)OC(=O)N[C@H](C(=O)N[C@H](C)c1nc2ccc(F)cc2s1)C(C)C [Benthivalicarb, benthivalicarb]
% Disease Control (Observed) ([1]; 1DP, 0.62 ppm alone): 57.9%
% Disease Control (Observed) ([4]; 0.62 ppm alone): 28.1%
% Disease Control (Observed) ([2]; 1DP, 0.62 ppm alone): 31.6%

CCC(C)(NC(=O)c1cc(Cl)c(C)c(Cl)c1)C(=O)CCl (centres unmarked) [Zoxamide, zoxamide]
% Disease Control (Observed) ([1]; 4DP, 1.90 ppm alone): 5.30%
% Disease Control (Observed) ([1]; 4DP, 5.60 ppm alone): 57.90%
% Disease Control (Observed) ([1]; PLASVI 2DP, applied alone at 0.4 ppm): 3.5%
% Disease Control (Observed) ([1]; PLASVI 2DP, applied alone at 1.1 ppm): 21.1%
% Disease Control (Observed) ([1]; PLASVI 2DP, applied alone at 3.3 ppm): 36.8%
% Disease Control (Observed) ([1]; PLASVI 3DP, applied alone at 0.4 ppm): 3.5%
% Disease Control (Observed) ([1]; PLASVI 3DP, applied alone at 1.1 ppm): 17.5%
% Disease Control (Observed) ([1]; PLASVI 6DP, applied alone at 3.3 ppm): 10.5%
% Disease Control (Observed) ([2]; 4DP, 1.90 ppm alone): 55.30%
% Disease Control (Observed) ([2]; 4DP, 11.20 ppm alone): 19.30%
% Disease Control (Observed) ([2]; 4DP, 16.70 ppm alone): 34.90%
% Disease Control (Observed) ([2]; PHYTIN 2DP, applied alone at 0.4 ppm): 1.8%
% Disease Control (Observed) ([2]; PHYTIN 2DP, applied alone at 1.1 ppm): 14%
% Disease Control (Observed) ([2]; PHYTIN 3DP, applied alone at 1.1 ppm): 10.5%
% Disease Control (Observed) ([2]; PHYTIN 6DP, applied alone at 1.1 ppm): 7%
% Disease Control (Observed) ([2]; PHYTIN 6DP, applied alone at 3.3 ppm): 40.4%

O=C1C2CC=CCC2C(=O)N1SC(Cl)(Cl)Cl (centres unmarked) [Captan, captan]
pest or weed control at 5.56 ppm [2, 7]: 0%

[Cu+2].[OH-].[OH-] [Cu(OH)2, copper hydroxide]
% Disease Control (Observed) ([1]; 3DP, 16.70 ppm alone): 10.5%
% Disease Control (Observed) ([2]; 3DP, 5.56 ppm alone): 14.0%

CCCOC(=O)NCCCN(C)C [Propamocarb, propamocarb]
pest or weed control at 5.56 ppm ([1]; Plasmopara viticola, 48 h, read-out: % Disease Control (observed), 2DP, 5.56 ppm alone): 0%
pest or weed control at 1.85 ppm ([2]; Phytophthora infestans, 48 h): 1.8%
pest or weed control at 0.62 ppm ([2]; Phytophthora infestans, 48 h, read-out: % Disease Control (observed), 2DP, 0.62 ppm alone): 0%

[Cl-].[Cu+2].[Cu+2].[OH-].[OH-].[OH-] [Cu oxychloride, copper oxychloride]
% Disease Control (Observed) ([1]; PLASVI 6DP, applied alone at 38.3 ppm): 3.5%
% Disease Control (Observed) ([2]; 3DP, 5.56 ppm alone): 17.5%
% Disease Control (Observed) ([2]; 3DP, 16.70 ppm alone): 24.6%
% Disease Control (Observed) ([2]; PHYTIN 6DP, applied alone at 12.8 ppm): 0%
% Disease Control (Observed) ([2]; PHYTIN 6DP, applied alone at 38.3 ppm): 22.8%
% Disease Control (Observed) ([2]; Table 10, PHYTIN (3DP) as printed, 16.70 ppm alone): 7.0%

Propineb
% Disease Control (Observed) [1, 9]: 0.0%
% Disease Control (Observed) [2, 10]: 0.0%

C[C@@]1(c2ccc(Oc3ccccc3)cc2)OC(=O)N(Nc2ccccc2)C1=O (racemic) [Famoxadone, famoxadone]
pest or weed control at 1.85 ppm [1, 8]: 31.6%
pest or weed control at 1.85 ppm ([2]; Phytophthora infestans, 48 h): 47.4%

CO/C=C(/C(=O)OC)c1ccccc1Oc1cc(Oc2ccccc2C#N)ncn1 [Azoxystrobin, azoxystrobin]
% Disease Control (Observed) ([1]; 3DP, 1.85 ppm alone): 28.1%
% Disease Control (Observed) ([1]; 3DP, 5.56 ppm alone): 59.6%
% Disease Control (Observed) ([2]; 3DP, 5.56 ppm alone): 33.3%

CON=C(C(=O)OC)c1ccccc1CON=C(C)c1cccc(C(F)(F)F)c1 [Trifloxystrobin, trifloxystrobin]
pest or weed control at 0.62 ppm [1, 6]: 1.8%
pest or weed control at 1.85 ppm [1, 8]: 21.1%
pest or weed control at 1.85 ppm ([2]; Phytophthora infestans, 48 h): 24.6%

CC[C@H](CS(=O)(=O)[C@@H](C)c1ccc(C#N)cc1)NC(=O)Oc1ccc(F)cc1 [Formula IIIa, 4-fluorophenyl(1S)-1-({[(1S)-1-(4-cyanophenyl)ethyl]sulfonyl}methyl) propylcarbamate]
% Disease Control (Observed) ([1]; 4DP, 1.9 ppm alone): 14.0%
% Disease Control (Observed) ([1]; 4DP, 1.90 ppm alone): 14.00%
% Disease Control (Observed) ([1]; 4DP, 2.8 ppm alone): 76.3%
% Disease Control (Observed) ([2]; 4DP, 0.3 ppm alone): 19.3%
% Disease Control (Observed) ([2]; 4DP, 0.60 ppm alone): 10.50%
% Disease Control (Observed) ([2]; 4DP, 0.9 ppm alone): 73.7%
% Disease Control (Observed) ([2]; 4DP, 1.9 ppm alone): 78.9%
% Disease Control (Observed) ([2]; 4DP, 1.90 ppm alone): 78.90%

COC(=O)C(C)N(C(=O)Cc1ccccc1)c1c(C)cccc1C (centres unmarked) [Benalaxyl, benalaxyl]
% Disease Control (Observed) ([3]; 0.60 ppm alone): 24.6%
% Disease Control (Observed) ([4]; 1.90 ppm alone): 8.8%
% Disease Control (Observed) ([4]; 16.70 ppm alone): 12.3%

N#Cc1c(Cl)c(Cl)c(Cl)c(C#N)c1Cl [Chlorothalonil, chlorothalonil]
pest or weed control at 1.85 ppm ([1]; Plasmopara viticola, 24 h, read-out: % Disease Control (observed), 1DP, 1.85 ppm alone): 0%
pest or weed control at 5.56 ppm [2, 7]: 0%
